Values quoted from earlier work in patent US8153634B2, “Carbinol derivatives having cyclic linker” (Kowa Company, Ltd., priority 2008, dated 2012).

Test system: LXRβ (versus LXRα)
Conditions: reported in non-patent document 22

In the case of `O=C(O)Cc1ccc(COc2cccc(-c3c(Cc4ccccc4)cnc4c(C(F)(F)F)cccc34)c2)cc1` [WAY-254011], the “LXRβ-selective binding affinity, α/β ratio” value is given as 1 to 5.
